Experimental findings from PMC8329300, “X-ray crystallography reveals molecular recognition mechanism for sugar binding in a melibiose transporter MelB” (Communications Biology, 2021) are described below.

The target of the experiment is T1, WT MelBSt (Salmonella typhimurium, UniProt P30878).
T1 construct: Cys scanning mutagenesis for the full-length MelBSt; His10 (C); made in house; host or cells: E. coli DW2
Nature of the experiment: biochemical. The class given is binding. As to conditions: for IC50: IC50 of galactoside displacement on bound D2G, α-NPG, 10 μM D2G. The protocol: Fig. 1 Functional characterizations. a [^3H] Melibiose transport time course with intact cells. […] Inset, melibiose fermentation assay. Transformants with DW2 strain were plated on MacConkey agar plates containing 30 mM melibiose as the sole carbohydrate source and pH sensor neutral red, and incubated at 37 °C for 16–18 h before imaging. Number of tests = 3, from different batch of cells or duplicate measurements from same batch of sample. b Ligand binding by Trp→dansyl galactoside (D^2G) FRET assay. Purified proteins at 1 μM concentration in 20 mM Tris-HCl, pH 7.5, 100 mM CholCl, 10% glycerol, and 0.03% UDM were subjected to steady-state fluorescence measurements as described in Methods. On the time-trace, 1.8 μL of 1 mM D^2G at 10 μM was added into 180 μL of protein solutions at 1-min point, followed by supplying 10 μL of 5 mM DDMB or 5 mM α-NPG to displace the bound D^2G. For testing Na^+ or Li^+ binding, they are added into the solution before displacement with the second sugar. The structure of DDMB or α-NPG is shown in a chair form, and the carbon positions are labeled. Glycosidic bonds are indicated by arrows. Both are α-galactosides containing a substituent at the anomeric carbon-1. The data were from duplicate measurements.
Steady-state fluorescence measurements were performed with an AMINCO-Bowman series 2 spectrometer with purified MelBSt at 1 μM in 20 mM Tris-HCl, pH 7.5, 100 mM CholCl, 10% glycerol, 0.03% UDM. Using an excitation wavelength at 290 nm, the emission intensity was recorded at 490 nm. On a time-trace, D^2G, NaCl or LiCl, then DDMB or α-NPG, were sequentially added into the protein solutions at a 1 min-interval. […] An identical volume of water was used for the control. The decrease in intensity after each addition of DDMB or α-NPG was corrected by the dilution effect and plotted as a function of the accumulated α-NPG concentrations or estimated DDMB concentrations. The 50% inhibitory concentration (IC50) was determined by fitting a hyperbolic function to the data (OriginPro 2020b). The final concentration of each detergent is estimated to be 234 μM, which is less than their CMC value for (DDMB, 295 μM).
Supplementary Figure 2. Determination of DDMB binding affinity to MelBSt. (a) Titration with DDMB or a-NPG. MelBSt in 20 mM Tris-HCl, pH 7.5, 100 mM CholCl, 10% glycerol, 0.03% UDM without (1) or with 100 mM NaCl (2) were added with D2G at 10 μM at 1-min time point as indicated by triangle symbols on the Trp®dansyl FRET time trace. Starting at the 2-min of time point, DDMB or a-NPG solution was supplemented consecutively at a 1-min interval into MelBSt solution till no change in fluorescence intensity reached as indicated in star symbols. DDM and UDM were used as negative controls. 1% DDM or UDM was titrated into the mixture, The […]
At 2-min time point, additions of galactosides were colored in pink, a-NPG in yellow, UDM in blue, DDM in light blue, water in gray traces, respectively. (b) IC50 determination. The intensity decrease at each titration were corrected by the dilution effect, and plotted as a function of the accumulated DDMB or α-NPG concentration. The 50% inhibitory concentration (IC50) was determined by fitting the data to a hyperbolic function (OriginPro 2020b). Results are presented in […]
(1 picture or pasted object on this page, not shown here)

T1 sequence (P30878 whole entry): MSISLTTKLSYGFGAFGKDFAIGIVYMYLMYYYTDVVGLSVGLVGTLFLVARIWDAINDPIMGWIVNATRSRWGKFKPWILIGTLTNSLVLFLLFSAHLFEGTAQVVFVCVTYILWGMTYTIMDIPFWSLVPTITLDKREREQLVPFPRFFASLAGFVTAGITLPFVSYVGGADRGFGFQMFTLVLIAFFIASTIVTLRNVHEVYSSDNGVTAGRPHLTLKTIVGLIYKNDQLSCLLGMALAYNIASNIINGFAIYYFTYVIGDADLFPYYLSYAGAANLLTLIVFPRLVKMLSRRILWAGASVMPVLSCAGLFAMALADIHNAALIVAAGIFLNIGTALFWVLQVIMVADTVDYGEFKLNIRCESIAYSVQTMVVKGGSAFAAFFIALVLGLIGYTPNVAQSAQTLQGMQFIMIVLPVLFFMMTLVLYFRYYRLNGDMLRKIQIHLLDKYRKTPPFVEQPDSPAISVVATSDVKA

Broadly, the IC50 is the concentration that gives 50% inhibition. Regarding `O=[N+]([O-])c1ccc(OC2OC(CO)C(O)C(O)C2O)cc1` [α-NPG, 4-nitrophenyl-α-D-galactopyranoside], the half-inhibitory concentration (IC50) reads like this: (Apo) 58.2 ± 11.5 µM; (Na+ (100 mM)) 23 ± 2.24 µM. Besides, the “effect on Trp→D2G FRET of D2G-bound protein (displacement)” value (added to D2G-bound WT MelBSt) was “large decrease in fluorescent intensity”.
